Data on 22 compounds can be found in patent publication US12667572B2, “Tricyclic compounds useful in the treatment of cancer, autoimmune and inflammatory disorders” (SCHRÖDINGER, INC., priority 2021, dated 2026).

This test deals with T1, full-length MALT1 protein His-MALT1(1-824) (Homo sapiens, UniProt Q9UDY8).
T1 construct: full-length MALT1 protein His-MALT1(1-824); His (N); made in house; host or cells: baculovirus-infected insect cells
T1 sequence (Q9UDY8 1-824): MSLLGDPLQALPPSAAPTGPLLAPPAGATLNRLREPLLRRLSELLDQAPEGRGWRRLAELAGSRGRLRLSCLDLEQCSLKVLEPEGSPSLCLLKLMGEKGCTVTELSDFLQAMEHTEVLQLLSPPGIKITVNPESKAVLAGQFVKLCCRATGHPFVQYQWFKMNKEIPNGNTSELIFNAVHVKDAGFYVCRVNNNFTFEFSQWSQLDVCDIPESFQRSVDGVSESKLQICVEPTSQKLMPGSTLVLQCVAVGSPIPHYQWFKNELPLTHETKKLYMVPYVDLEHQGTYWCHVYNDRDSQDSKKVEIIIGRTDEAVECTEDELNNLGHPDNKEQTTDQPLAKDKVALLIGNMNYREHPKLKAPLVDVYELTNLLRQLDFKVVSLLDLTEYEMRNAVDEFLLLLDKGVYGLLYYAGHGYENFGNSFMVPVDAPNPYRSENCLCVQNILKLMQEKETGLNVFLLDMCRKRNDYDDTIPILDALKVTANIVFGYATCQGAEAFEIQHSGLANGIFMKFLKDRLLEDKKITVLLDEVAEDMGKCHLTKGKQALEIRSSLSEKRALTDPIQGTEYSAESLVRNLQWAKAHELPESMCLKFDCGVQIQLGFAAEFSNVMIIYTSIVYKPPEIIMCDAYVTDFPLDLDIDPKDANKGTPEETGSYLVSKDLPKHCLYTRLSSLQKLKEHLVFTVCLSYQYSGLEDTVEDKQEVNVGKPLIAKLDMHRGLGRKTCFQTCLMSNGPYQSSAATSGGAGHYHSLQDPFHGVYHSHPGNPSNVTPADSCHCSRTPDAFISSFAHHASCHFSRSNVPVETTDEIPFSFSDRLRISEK
Description: MALT1 protease assay, Assay 2 (1 nM MALT1, Ac-LRSR-AMC substrate). It counts as biochemical. As to conditions: 1 nM MALT1, 50 μM Ac-LRSR-AMC, 2 h pre-incubation, 8 hr incubation at RT. In outline:
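Full-length His-MALT1(1-824) from baculovirus-infected insect cells, pre-incubated with compound 2 h at RT (0.1% DMSO). Then 50 μM Ac-LRSR-AMC added. Buffer was Tris pH 7.5 with 600 mM sodium citrate, DTT, EDTA and BSA. Fluorescence (ex 355/em 460 nm) was read after 8 h at RT and normalized to high/low controls. IC50 from non-linear regression.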
For the compound `CC1(C)CC(C(=O)Nc2cnc(OC3CC3)c(Cl)c2)c2cnc3cc(Cl)nn3c21` (single isomer, unassigned) [Example 74, 2-chloro-N-(5-chloro-6-cyclopropoxypyridin-3-yl)-8,8-dimethyl-7,8-dihydro-6H-cyclopenta[e]pyrazolo[1,5-a]pyrimidine-6-carboxamide], the IC50 (as a rule, the concentration that inhibits the measured activity by half) was at least 1000 nM.
For `CC1(C)C[C@](C)(C(=O)Nc2cnc(-n3nccn3)c(Cl)c2)c2cnc3cc(Cl)nn3c21` (single isomer, unassigned) [Example 138, 2-chloro-N-(5-chloro-6-(2H-1,2,3-triazol-2-yl)pyridin-3-yl)-6,8,8-trimethyl-7,8-dihydro-6H-cyclopenta[e]pyrazolo[1,5-a]pyrimidine-6-carboxamide], the concentration for half-maximal inhibition (IC50) was at least 1000 nM.
Next, `CC1(C)C[C@@H](C(=O)Nc2cnc(OC(F)F)c(C#N)c2)c2cnn3cc(C(F)F)nc3c21` (single isomer, unassigned) [Example 198, N-(5-cyano-6-(difluoromethoxy)pyridin-3-yl)-2-(difluoromethyl)-9,9-dimethyl-8,9-dihydro-7H-cyclopenta[d]imidazo[1,2-b]pyridazine-7-carboxamide]: at least 1000 nM; `CC1(C)CC(C(=O)Nc2cnc(-n3nccn3)c(C#N)c2)c2cnc3cc(F)nn3c21` (single isomer, unassigned) [Example 88, N-(5-cyano-6-(2H-1,2,3-triazol-2-yl)pyridin-3-yl)-2-fluoro-8,8-dimethyl-7,8-dihydro-6H-cyclopenta[e]pyrazolo[1,5-a]pyrimidine-6-carboxamide]: 10 to 100 nM.
Next, `N#Cc1cc(NC(=O)C2CC3(CCOCC3)c3c2cnc2cc(F)nn32)cnc1OC(F)F` (single isomer, unassigned) [Example 147, N-(5-cyano-6-(difluoromethoxy)pyridin-3-yl)-2-fluoro-2′,3′,5′,6,6′,7-hexahydrospiro[cyclopenta[e]pyrazolo[1,5-a]pyrimidine-8,4′-pyran]-6-carboxamide]: at least 1000 nM; `CC1(C)O[C@H](C(=O)Nc2cnc(-n3nccn3)c(Cl)c2)c2cnc3cc(Cl)nn3c21` (single isomer, unassigned) [Example 71, 2-chloro-N-(5-chloro-6-(2H-1,2,3-triazol-2-yl)pyridin-3-yl)-8,8-dimethyl-6,8-dihydrofuro[3,4-e]pyrazolo[1,5-a]pyrimidine-6-carboxamide]: 100 to 1000 nM; `CC1(C)CC(C(=O)Nc2cnc(OC(F)F)c(Cl)c2)c2cnc3cc(Cl)nn3c21` (single isomer, unassigned) [Example 67, 2-chloro-N-(5-chloro-6-(difluoromethoxy)pyridin-3-yl)-8,8-dimethyl-7,8-dihydro-6H-cyclopenta[e]pyrazolo[1,5-a]pyrimidine-6-carboxamide]: 100 to 1000 nM.
For `CC1(C)CC(C(=O)Nc2cnc(OC(F)F)c(C#N)c2)c2cnc3cc(C(F)F)nn3c21` (single isomer, unassigned) [Example 126, N-(5-cyano-6-(difluoromethoxy)pyridin-3-yl)-2-(difluoromethyl)-8,8-dimethyl-7,8-dihydro-6H-cyclopenta[e]pyrazolo[1,5-a]pyrimidine-6-carboxamide] the value was 10 to 100 nM; for `CC1(C)CC(C(=O)Nc2cnc(C(=O)N3CCC3)c(C(F)(F)F)c2)c2cnc3cc(Cl)nn3c21` (stereo not shown) [Example 118, N-(6-(azetidine-1-carbonyl)-5˜(trifluoromethyl)pyridin-3-yl)-2-chloro-8,8-dimethyl-7,8-dihydro-6H-cyclopenta[e]pyrazolo[1,5-a]pyrimidine-6-carboxamide], 10 to 100 nM.
`CC(C)(O)c1ncc(NC(=O)[C@@H]2CC3(CCC3)c3c2cnc2cc(F)nn32)cc1Cl` (single isomer, unassigned) [Example 104, N-(5-chloro-6-(2-hydroxypropan-2-yl)pyridin-3-yl)-2′-fluoro-6′,7′-dihydrospiro[cyclobutane-1,8′-cyclopenta[e]pyrazolo[1,5-a]pyrimidine]-6′-carboxamide] displayed an IC50 of at least 1000 nM.
Next, `Cn1nnc(-c2ncc(NC(=O)[C@@H]3CC(C)(C)c4c3cnc3cc(Cl)nn43)cc2Cl)n1` (single isomer, unassigned) [Example 142, 2-chloro-N-(5-chloro-6-(2-methyl-2H-tetrazol-5-yl)pyridin-3-yl)-8,8-dimethyl-7,8-dihydro-6H-cyclopenta[e]pyrazolo[1,5-a]pyrimidine-6-carboxamide]: at least 1000 nM; `Cc1cc2c(F)cc3c(n2n1)C(C)(C)CC3C(=O)Nc1cnc(-n2nccn2)c(Cl)c1` (stereo not shown) [Example 171, N-(5-chloro-6-(2H-1,2,3-triazol-2-yl)pyridin-3-yl)-4-fluoro-2,8,8-trimethyl-7,8-dihydro-6H-cyclopenta[e]pyrazolo[1,5-a]pyridine-6-carboxamide]: 10 to 100 nM; `Cc1nnn(-c2ncc(NC(=O)C3CC(C)(C)c4c3cnc3cc(Cl)nn43)cc2Cl)n1` (single isomer, unassigned) [Example 141, 2-chloro-N-(5-chloro-6-(5-methyl-2H-tetrazol-2-yl)pyridin-3-yl)-8,8-dimethyl-7,8-dihydro-6H-cyclopenta[e]pyrazolo[1,5-a]pyrimidine-6-carboxamide]: at least 1000 nM.
For the compound `CC1(C)CC(C(=O)Nc2cc(C(F)F)c(-c3ccno3)c(=O)[nH]2)c2cnc3cc(Cl)nn3c21` (stereo not shown) [Example 60, 2-chloro-N-(4-(difluoromethyl)-5-(isoxazol-5-yl)-6-oxo-1,6-dihydropyridin-2-yl)-8,8-dimethyl-7,8-dihydro-6H-cyclopenta[e]pyrazolo[1,5-a]pyrimidine-6-carboxamide], the IC50 is 100 to 1000 nM.
Next, `CC(C)(O)c1ncc(NC(=O)[C@H]2CC3(CCC3)c3c2cnc2cc(F)nn32)cc1Cl` (single isomer, unassigned) [Example 105, N-(5-chloro-6-(2-hydroxypropan-2-yl)pyridin-3-yl)-2′-fluoro-6′,7′-dihydrospiro[cyclobutane-1,8′-cyclopenta[e]pyrazolo[1,5-a]pyrimidine]-6′-carboxamide]: at least 1000 nM.
`CC1(C)C[C@H](C(=O)Nc2cc(C#N)c(OC(F)F)cn2)c2cnc3cc(F)nn3c21` (single isomer, unassigned) [Example 170]: the IC50 is 10 to 100 nM.
For `CC1(C)C[C@@H](C(=O)Nc2cnc(-n3nccn3)c(C#N)c2)c2cnn3cc(C(F)F)nc3c21` (single isomer, unassigned) [Example 196, N-(5-cyano-6-(2H-1,2,3-triazol-2-yl)pyridin-3-yl)-2-(difluoromethyl)-9,9-dimethyl-8,9-dihydro-7H-cyclopenta[d]imidazo[1,2-b]pyridazine-7-carboxamide] the value was 100 to 1000 nM; for `O=C(Nc1cnc(-n2nccn2)c(Cl)c1)C1CC2(CCC2)c2c1cnc1cc(F)nn21` (single isomer, unassigned) [Example 109, N-(5-chloro-6-(2H-1,2,3-triazol-2-yl)pyridin-3-yl)-2′-fluoro-6′,7′-dihydrospiro[cyclobutane-1,8′-cyclopenta[e]pyrazolo[1,5-a]pyrimidine]-6′-carboxamide], at least 1000 nM; for `Cc1cc(NC(=O)C2CC(C)(C)c3c2cnc2cc(F)nn32)cnc1-c1cnn(C)c1` (stereo not shown) [Example 178, 2-fluoro-8,8-dimethyl-N-(5-methyl-6-(1-methyl-1H-pyrazol-4-yl)pyridin-3-yl)-7,8-dihydro-6H-cyclopenta[e]pyrazolo[1,5-a]pyrimidine-6-carboxamide], at least 1000 nM.
Next, `Cc1cn2ncc3c(c2n1)C(C)(C)C[C@H]3C(=O)Nc1cnc(-n2nccn2)c(Cl)c1` (single isomer, unassigned) [Example 188, N-(5-chloro-6-(2H-1,2,3-triazol-2-yl)pyridin-3-yl)-2,9,9-trimethyl-8,9-dihydro-7H-cyclopenta[d]imidazo[1,2-b]pyridazine-7-carboxamide]: 100 to 1000 nM.
For `CC1(C)C[C@@H](C(=O)Nc2cnc(-n3nccn3)c(Cl)c2)c2cnn3cc(C(F)F)nc3c21` (single isomer, unassigned) [Example 202, N-(5-chloro-6-(2H-1,2,3-triazol-2-yl)pyridin-3-yl)-2-(difluoromethyl)-9,9-dimethyl-8,9-dihydro-7H-cyclopenta[d]imidazo[1,2-b]pyridazine-7-carboxamide] the value was 100 to 1000 nM; for `CC1(C)CC(C(=O)Nc2cnc(N3CCCC3=O)c(Cl)c2)c2cnc3cc(F)nn3c21` (stereo not shown) [Example 175, N-(5-chloro-6-(2-oxopyrrolidin-1-yl)pyridin-3-yl)-2-fluoro-8,8-dimethyl-7,8-dihydro-6H-cyclopenta[e]pyrazolo[1,5-a]pyrimidine-6-carboxamide], at least 1000 nM.
